Read-outs that look alike come from different tables or passages of the source.
How the values were obtained:
Format in all cases: biochemical
MMP 1 = molecular target: T1, MMP 1 (Homo sapiens, UniProt P03956); test: In Vitro Collagenase Assay; conditions: human recombinant fibroblast collagenase; for inhibition at 1 µM: read-out: MMP 1 % inhibition at 1 micromolar, 1 micromolar; for IC50: read-out: MMP 1 IC 50
T1 construct: human recombinant fibroblast collagenase (truncated, mw= 18,828, WAR, Radnor)
T1 sequence (P03956 100-269 limits assumed): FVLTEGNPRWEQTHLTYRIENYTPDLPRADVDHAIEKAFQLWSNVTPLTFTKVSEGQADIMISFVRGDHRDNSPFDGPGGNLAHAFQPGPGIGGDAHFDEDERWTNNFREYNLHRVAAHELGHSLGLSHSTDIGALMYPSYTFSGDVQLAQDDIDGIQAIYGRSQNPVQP
Experimental: The assay is based on the cleavage of a peptide substrate ((Dnp-Pro-Cha-Gly-Cys(Me)-His-Ala-Lys(NMa)-NH2), Peptide International, Inc.) by collagenase releasing the fluorescent NMa group which is quantitated on the fluorometer. Dnp quenches the NMa fluorescence in the intact substrate. […] Substrate is dissolved in methanol and stored frozen in 1 mM aliquots. […] For the assay, substrate is dissolved in HCBC buffer to a final concentration of 10 µM and collagenase to a final concentration of 5 nM. Compounds are dissolved in methanol, DMSO, or HCBC. The methanol and DMSO are diluted in HCBC to < 1.0%. Compounds are added to the 96 well plate containing enzyme and the reaction is started by the addition of substrate.
The slope of the line is calculated and represents the reaction rate.
The linearity of the reaction rate is confirmed (r^2 >0.85). The mean (x ± sem) of the control rate is calculated and compared for statistical significance (p <0.05) with drug-treated rates using Dunnett's multiple comparison test.

MMP 9 = molecular target: T2, MMP 9 (Homo sapiens, UniProt P14780); test: In Vitro Gelatinase Assay; conditions: human neutrophil gelatinase B; for IC50: read-out: MMP 9 IC 50; for inhibition at 1 µM: read-out: MMP 9 % inhibition at 1 micromolar, 1 micromolar
T2 construct: from tissue; host or cells: human neutrophils
Experimental: The assay is based on the cleavage of the thiopeptide substrate ((Ac-Pro-Leu-Gly(2 mercapto-4 methyl-pentanoyl)-Leu-Gly-OEt), Bachem Bioscience) by the enzyme, gelatinase, releasing the substrate product which reacts colorimetrically with DTNB ((5,5'-dithio-bis(2-nitro-benzoic acid)). The enzyme activity is measured by the rate of the color increase. The thiopeptide substrate is made up fresh as a 20 mM stock in 100% DMSO and the DTNB is dissolved in 100% DMSO as a 100 mM stock and stored in dark at room temperature. Both the substrate and DTNB are diluted together to 1 mM with substrate buffer (50 mM HEPES pH 7.5, 5 mM CaCl2) before use. […] The increase in OD405 is plotted and the slope of the line is calculated which represents the reaction rate. The linearity of the reaction rate is confirmed (r^2 >0.85). The mean (x ± sem) of the control rate is calculated and compared for statistical significance (p <0.05) with drug-treated rates using Dunnett's multiple comparison test.

MMP 13 = MMP 13 (Homo sapiens, UniProt P45452); test: MMP 13 inhibition (IC50 / manual assay; method not described); conditions: for IC50: read-out: MMP 13 IC 50; for inhibition at 1 µM: read-out: MMP 13 % inhibition at 1 micromolar
TACE = molecular target: T3, TACE (Homo sapiens, UniProt P78536); test: Procedure for Measuring TACE Inhibition; conditions: for inhibition at 1 µM: read-out: TACE % inhibition at 1 micromolar
T3 construct: purchased Immunex
Summary of the method: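 Single-concentration screen: test compound at 1 µM final, 10-min room-temperature preincubation with 1 µg/mL protease in Tris pH 7.4 buffer containing glycerol. Initial rate from linear fluorescence increase (340/420 nm) over 10 min after adding 100 µM peptidyl substrate; significance versus control rate by Dunnett's test.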

T3 sequence (P78536 215-824): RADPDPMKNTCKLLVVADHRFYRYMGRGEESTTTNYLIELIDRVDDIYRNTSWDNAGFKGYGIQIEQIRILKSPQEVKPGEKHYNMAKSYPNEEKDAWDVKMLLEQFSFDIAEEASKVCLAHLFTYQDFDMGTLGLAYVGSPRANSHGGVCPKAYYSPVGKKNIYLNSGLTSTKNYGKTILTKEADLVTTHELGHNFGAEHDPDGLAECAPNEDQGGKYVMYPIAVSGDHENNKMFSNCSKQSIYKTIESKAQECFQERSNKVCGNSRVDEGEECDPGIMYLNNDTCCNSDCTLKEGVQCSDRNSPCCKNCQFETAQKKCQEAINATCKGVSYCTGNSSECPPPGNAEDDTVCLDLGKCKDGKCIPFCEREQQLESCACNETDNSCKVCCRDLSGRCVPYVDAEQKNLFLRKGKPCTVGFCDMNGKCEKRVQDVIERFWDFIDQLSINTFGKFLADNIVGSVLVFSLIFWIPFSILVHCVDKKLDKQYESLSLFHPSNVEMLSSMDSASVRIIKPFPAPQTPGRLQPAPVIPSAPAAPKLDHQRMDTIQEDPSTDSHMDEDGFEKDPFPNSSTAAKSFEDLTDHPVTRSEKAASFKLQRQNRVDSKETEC
T2 sequence (P14780 94-707): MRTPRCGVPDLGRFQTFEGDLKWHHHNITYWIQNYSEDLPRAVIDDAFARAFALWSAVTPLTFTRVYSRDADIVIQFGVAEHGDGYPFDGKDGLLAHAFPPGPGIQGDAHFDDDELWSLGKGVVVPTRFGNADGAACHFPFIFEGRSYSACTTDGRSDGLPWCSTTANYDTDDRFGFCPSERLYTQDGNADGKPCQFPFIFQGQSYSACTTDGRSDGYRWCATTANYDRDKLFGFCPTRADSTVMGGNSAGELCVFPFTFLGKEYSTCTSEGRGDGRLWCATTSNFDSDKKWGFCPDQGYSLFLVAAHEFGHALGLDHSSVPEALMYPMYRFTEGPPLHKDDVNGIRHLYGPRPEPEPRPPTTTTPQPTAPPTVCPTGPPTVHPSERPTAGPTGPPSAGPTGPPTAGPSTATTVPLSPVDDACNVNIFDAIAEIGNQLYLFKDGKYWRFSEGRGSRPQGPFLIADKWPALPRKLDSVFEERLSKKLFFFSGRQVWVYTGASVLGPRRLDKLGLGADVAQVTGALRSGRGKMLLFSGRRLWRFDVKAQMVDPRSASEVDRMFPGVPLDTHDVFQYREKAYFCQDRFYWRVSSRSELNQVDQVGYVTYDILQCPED

inhibition at 1 µM (MMP 1) | IC50 (MMP 9) | IC50 (MMP 13) | inhibition at 1 µM (MMP 9) | inhibition at 1 µM (MMP 13) | inhibition at 1 µM (TACE) | IC50 (MMP 1) | IC50 (TACE; read-out: TACE IC 50) | IC50 (TACE) | SMILES
59.6% | 0.649 µM | 0.148 µM | – | – | – | – | – | – | COc1ccc(S(=O)(=O)C2(C(=O)NO)CCN(C(C)(C)C)CC2)cc1 [Example 92, 1-Tert-butyl-4-(4-methoxy-benzenesulfonyl)-piperidine-4-carboxylic acid hydroxyamide]
48.3% | – | – | 1.7% | 5.8% | 55.1% | – | – | – | CCCCCCC(Sc1ccc(F)cc1)C(=O)NO (stereo not shown) [Example 38, 2-(4-Fluoro-phenylsulfanyl)-octanoic acid hydroxyamide]
– | 0.0386 µM | 0.007 µM | – | – | 49% | 1.39 µM | – | – | COc1ccc(S(=O)(=O)C2(C(=O)NO)CCN(CC=C(C)C)CC2)cc1 [Example 89, 4-(4-methoxy-benzene-sulfonyl)-1-(3-methyl-but-2-enyl)piperidine-4-carboxylic acid hydroxamide]
– | 0.0539 µM | 0.0184 µM | – | – | 23.9% | 0.318 µM | – | – | CCC(Cc1ccc(OCCN2CCOCC2)cc1)(C(=O)NO)S(=O)(=O)c1ccc(OC)cc1 (stereo not shown) [Example 33, N-Hydroxy-2-(4-methoxy-benzenesulfonyl)-2-[4-(2-morpholin-4-yl-ethoxy)-benzyl]-butyramide]
– | 0.0077 µM | 0.0047 µM | – | – | 25% | – | – | – | COc1ccc([S+]([O-])C(C)(Cc2ccccc2)C(=O)NO)cc1 (stereo not shown) [Example 5, N-Hydroxy-2-(4-methoxy-benzenesulfinyl)-2-methyl-3-phenyl-propionamide]
– | 0.029 µM | 0.027 µM | – | – | – | – | 0.522 µM | – | COc1ccc(S(=O)(=O)C(CCCCOc2ccccc2)(Cc2cccnc2)C(=O)NO)cc1 (stereo not shown) [Example 68, 2-(4-Methoxy-benzenesulfonyl)-6-phenoxy-2-pyridin-3-ylmethyl-hexanoic acid hydroxyamide]
– | – | 0.5 µM | – | – | – | 0.805 µM | – | – | CC#CCC(Cc1cccnc1)(C(=O)NO)S(=O)(=O)c1ccc(F)cc1 (stereo not shown) [Example 76, 2-(4-Fluoro-benzenesulfonyl)-2-pyridin-3-ylmethyl-hex-4-ynoic acid hydroxyamide]
– | 0.234 µM | 0.0482 µM | – | – | – | 0.456 µM | – | – | CCCC(Cc1ccc(OCCN2CCOCC2)cc1)(C(=O)NO)S(=O)(=O)c1ccc(OC)cc1 (stereo not shown) [Example 35, 2-(4-Methoxy-benzenesulfonyl)-2-[4-(2-morpholin-4-yl-ethoxy)-benzyl]-pentanoic acid hydroxyamide]
– | – | 0.17 µM | – | – | – | 0.206 µM | – | – | CCCCCC#CCC(Cc1cccnc1)(C(=O)NO)S(=O)(=O)c1ccc(F)cc1 (stereo not shown) [Example 77, 2-(4-Fluoro-benzenesulfonyl)-2-pyridin-3-ylmethyl-dec-4-ynoic acid hydroxyamide]
– | 0.0451 µM | 0.0088 µM | – | – | – | – | – | 0.47 µM | COc1ccc(S(=O)(=O)C2(C(=O)NO)CCN(CCc3ccccc3)CC2)cc1 [Example 103, 4-(4-methoxy-benzenesulfonyl)-1-(2-phenyl-ethyl)-piperidine-4-carboxylic acid hydroxyamide]
– | 0.106 µM | 0.0301 µM | – | – | – | 0.629 µM | – | – | CCCCC(Cc1ccc(OCCN(CC)CC)cc1)(C(=O)NO)S(=O)(=O)c1ccc(OC)cc1 (stereo not shown) [Example 27, 2-[4-(2-Diethylamino-ethoxy)-benzyl]-2-(4-methoxy-benzenesulfonyl)-hexanoic acid hydroxyamide]
– | 0.0209 µM | 0.0313 µM | – | – | – | 0.413 µM | – | – | COc1ccc(S(=O)(=O)C(CC=C(C)C)(Cc2ccc(OCCN3CCOCC3)cc2)C(=O)NO)cc1 (stereo not shown) [Example 24, 2-(4-Methoxy-benzenesulfonyl)-5-methyl-2-[4-(2-morpholin-4-yl-ethoxy)-benzyl]-hex-4-enoic acid hydroxyamide]
– | 0.309 µM | 0.169 µM | – | – | 27.4% | – | – | – | COc1ccc(SC(C)(CC=C(C)C)C(=O)NO)cc1 (stereo not shown) [Example 3, 2-(4-Methoxy-phenylsulfanyl)-2,5-dimethyl-hex-4-enoic acid hydroxyamide]

Second part, the compound before the results:

SMILES | inhibition at 1 µM (MMP 1) | IC50 (MMP 9) | IC50 (MMP 13) | inhibition at 1 µM (MMP 9) | inhibition at 1 µM (MMP 13) | inhibition at 1 µM (TACE) | IC50 (MMP 1) | IC50 (TACE; read-out: TACE IC 50) | IC50 (TACE)
COc1ccc(S(=O)(=O)C(C)(CCCCN2C(=O)c3ccccc3C2=O)C(=O)NO)cc1 (stereo not shown) [Example 31, 6-(1,3-Dioxo-1,3-dihydro-isoindol-2-yl)-2-(4-methoxy-benzenesulfonyl)-2-methyl - hexanoic acid hydroxyamide] | – | 0.0152 µM | 0.0057 µM | – | – | – | 0.162 µM | 0.688 µM | –
COc1ccc([S+]([O-])C(C(=O)NO)C(C)C)cc1 (stereo not shown) [Example 7, N-Hydroxy-2-(4-methoxy-benzenesulfinyl)-3-methyl-butyramide] | – | 0.0729 µM | 0.0421 µM | – | – | 33% | 0.844 µM | – | –
COc1ccc(S(=O)(=O)C(C)(CC=C(C)CCC=C(C)C)C(=O)NO)cc1 (stereo not shown) [Example 15, 2-(4-methoxy-benzenesulfonyl)-2,5,9-trimethyl-deca-4,8-dienoic acid hydroxyamide] | – | 0.017 µM | 0.004 µM | – | – | – | 0.285 µM | 0.137 µM | –
CCCCCCC(Sc1nccn1C)C(=O)NO (stereo not shown) [Example 39, 2-(1-methyl-1H-imidazol-2-ylsulfanyl)-octanoic acid hydroxyamide] | 29.4% | – | – | 35.2% | 26.6% | – | – | – | –
COc1ccc(S(=O)(=O)C(CCC(C)C)(Cc2cccnc2)C(=O)NO)cc1 (stereo not shown) [Example 69, 2-(4-Methoxy-benzenesulfonyl)-5-methyl-2-pyridin-3-ylmethyl-hexanoic acid hydroxyamide] | – | – | 0.09 µM | – | – | 41.3% | 0.575 µM | – | –
CC(C(=O)O)S(=O)(=O)CCCCCCCCS(=O)(=O)C(C)C(=O)NO (stereo not shown) [Example 49, 2-[8-(1-carboxy-ethanesulfonyl)-octane-1-sulfonyl]-propionic acid hydroxyamide] | 10.1% | – | – | 23.7% | 54.6% | – | – | – | –
CCCCC[C@H](C(=O)NO)[S@+]([O-])c1ccc(OC)cc1 (stereo in doubt) [Example 81a, 2R*-(4-methoxy-phenyl-S*- sulfinyl)-heptanoic acid hydroxyamide] | – | 0.231 µM | 0.0439 µM | – | – | – | 2.04 µM | – | –
COc1ccc(S(=O)(=O)C(C/C=C(\C)CCC=C(C)C)(Cc2ccc(OCCN3CCOCC3)cc2)C(=O)NO)cc1 (stereo not shown) [Example 26, (4E)-2-(4-Methoxy-benzenesulfonyl)-5,9-dimethyl-2-[4-(2-morpholin-4-yl-ethoxy) - benzyl]-deca-4,8-dienoic acid hydroxyamide] | – | 0.0063 µM | 0.0032 µM | – | – | – | 0.305 µM | – | –
COc1ccc(SC(C)(Cc2ccccc2)C(=O)NO)cc1 (stereo not shown) [Example 1, N-Hydroxy-2-(4-methoxy-phenylsulfanyl)-2-methyl-3-phenyl-propionamide] | – | 0.56 µM | 0.193 µM | – | – | 31.6% | – | – | –
COc1ccc(S(=O)(=O)C2(C(=O)NO)CCN(C(C)C)CC2)cc1 [Example 96, 1-Isopropyl-4-(4-methoxy-benzenesulfonyl)-piperidine-4-carboxylic acid hydroxyamide] | – | 0.374 µM | 0.0338 µM | – | – | – | 4.44 µM | – | –
CCCCCCC(Sc1ccc(OC)cc1)C(=O)NO (stereo not shown) [Example 37, 2-(4-Methoxy-benzenesulfanyl)-octanoic acid hydroxyamide] | 9% | – | – | 31.6% | 14.3% | – | – | – | –
COc1ccc(SC(C(=O)NO)c2ccccc2)cc1 (stereo not shown) [Example 2, N-Hydroxy-2-(4-methoxy-phenylsulfanyl)-2-phenyl-acetamide] | – | – | – | 10.5% | 0% | – | – | 0.403 µM | –
CCN(CC)CCOc1ccc(CC(C)(C(=O)NO)S(=O)(=O)c2ccc(-c3ccco3)cc2)cc1 (stereo not shown) [Example 32, 3-[4-(2-Diethylamino-ethoxy)-phenyl]-2-(4-furan-2-yl-benzenesulfonyl)-N-hydroxy-2-methyl-propionamide] | – | 0.0037 µM | 0.001 µM | – | – | – | 0.0137 µM | – | –

From patent publication EP0970046B1, “N-HYDROXY-2-(ALKYL, ARYL, OR HETEROARYL SULFANYL, SULFINYL OR SULFONYL)-3-SUBSTITUTED ALKYL, ARYL OR HETEROARYLAMIDES AS MATRIX METALLOPROTEINASE INHIBITORS” (Wyeth Holdings Corporation, priority 1997, dated 1998)
